Measured values as given in BindingDB's records for doi:10.1016/j.bmc.2018.11.013 (Csir-Indian Institute of Integrative Medicine, 2018).

experiment: Inhibition of human CYP1A1 expressed in HEK293 cells assessed as reduction in CYP1A1 mediated B[alpha]P-7,8- dihydrodiol induced-toxicity by measuring EC50 at 3 times of IC50 concentration by MTT assay (Rvb = 1.4 +/ 0.4 uM)

O=c1cc(-c2ccccc2)oc2c1ccc1occc12 [LANCEOLATIN B] and COc1c(C(=O)/C=C(\O)c2ccccc2)ccc2occc12 [Pongamol] are within 1.5-fold of each other in EC50: 14.4 µM for the first, 10.2 µM for the second.

With COc1c(-c2ccc3c(c2)OCO3)oc2c(ccc3occc32)c1=O [Pongapin] the EC50 was 14.8 µM.
